Data from patent US10294202B2, “Pyrrolidinones as herbicides” (FMC Corporation, priority 2013, dated 2019).

Legend:
Experiment in all cases: Test A pre-/postemergence herbicide test
crabgrass, large = type: in vivo, Digitaria sanguinalis
Text: (§1) Seeds of plant species selected from bamyardgrass (Echinochloa crus-galli), kochia (Kochia scoparia), ragweed (common ragweed, Ambrosia elatior), ryegrass, Italian (Italian ryegrass, Lolium multiflorum), crabgrass, large (large crabgrass Digitaria sanguinalis), giant foxtail (Setaria faberii), morningglory (Ipomoea spp.), pigweed (Amaranthus retroflexus), velvetleaf (Abutilon theophrasti), wheat (Triticum aestivum), and corn (Zea mays) were planted into a blend of loam soil and sand and treated preemergence with a directed soil spray using test chemicals formulated in a non-phytotoxic solvent mixture which included a surfactant. At the same time, plants selected from these crop and weed species and also blackgrass (Alopecurus myosuroides), and galium (catchweed bedstraw, Galium aparine) were planted in pots containing the same blend of loam soil and sand and treated with postemergence applications of test chemicals formulated in the same manner. Plants ranged in height from 2 to 10 cm and were in the one- to two-leaf stage for the postemergence treatment. Treated plants and untreated controls were maintained in a greenhouse for approximately 10 days, after which time all treated plants were compared to untreated controls and visually evaluated for injury. Plant response ratings, summarized in Table A, are based on a 0 to 100 scale where 0 is no effect and 100 is complete control. A dash (-) response means no test result.

barnyardgrass = type: in vivo, Echinochloa crus-galli
Text: as §1

pigweed = type: in vivo, Amaranthus retroflexus; conditions: for Pigweed plant response rating: Preemergence
Text: as §1

giant foxtail = type: in vivo, Setaria faberii
Text: as §1

corn = type: in vivo, Zea mays
Text: as §1

wheat = type: in vivo, Triticum aestivum
Text: as §1

morningglory = type: in vivo, Ipomoea spp.
Text: as §1

velvetleaf = type: in vivo, Abutilon theophrasti
Text: as §1

[1] = Postemergence, 125 g ai/ha, 0 to 100 scale, 0 no effect, 100 complete control
[2] = Postemergence, 500 g ai/ha, 0 to 100 scale (0 no effect, 100 complete control)
[3] = Preemergence, 125 g ai/ha, visual rating on 0 to 100 scale (0 no effect, 100 complete control)
[4] = preemergence, 500 g ai/ha, 0 to 100 scale
[5] = preemergence, 500 g ai/ha, 0 to 100 scale (0 no effect, 100 complete control)
[6] = 125 g ai/ha, visual rating on 0 to 100 scale (0 no effect, 100 complete control)
[7] = Postemergence, 1000 g ai/ha, 0 to 100 scale (0 no effect, 100 complete control)
[8] = preemergence, 1000 g ai/ha, 0 to 100 scale
[9] = preemergence, 1000 g ai/ha, 0 to 100 scale (0 no effect, 100 complete control)
[10] = Postemergence, 125 g ai/ha, visual rating on 0 to 100 scale (0 no effect, 100 complete control), approx. 10 days
[11] = Preemergence, 1000 g ai/ha, visual rating on 0 to 100 scale (0 no effect, 100 complete control), approx. 10 days

O=C1NCC(c2ccccc2F)C1C(=O)Nc1ccccc1F (racemic) [Compound 85]
0: Plant response rating, Crabgrass, Large (crabgrass, large; [1]) | Plant response rating, Barnyardgrass (barnyardgrass; [1]) | Barnyardgrass plant response rating (barnyardgrass; [3]) | Plant response rating, Pigweed (pigweed; [1]) | Plant response rating, Pigweed (pigweed; [2]) | Pigweed plant response rating (pigweed; [6]) | Plant response rating, Pigweed (pigweed; [4]) | Plant response rating, Foxtail, Giant (giant foxtail; [1]) | Plant response rating, Foxtail, Giant (giant foxtail; [2]) | Foxtail, Giant plant response rating (giant foxtail; [3]) | Plant response rating, Corn (corn; [1]) | Plant response rating, Corn (corn; [2]) | Corn plant response rating (corn; [3]) | Plant response rating, Corn (corn; [4]) | Plant response rating, Wheat (wheat; [1]) | Plant response rating, Wheat (wheat; [2]) | Wheat plant response rating (wheat; [3]) | Plant response rating, Wheat (wheat; [4]) | Plant response rating, Morningglory (morningglory; [1]) | Plant response rating, Morningglory (morningglory; [2]) | Morningglory plant response rating (morningglory; [3]) | Plant response rating, Morningglory (morningglory; [4]) | Plant response rating, Velvetleaf (velvetleaf; [1]) | Plant response rating, Velvetleaf (velvetleaf; [2]) | Velvetleaf plant response rating (velvetleaf; [3]) | Plant response rating, Velvetleaf (velvetleaf; [4])
30: Crabgrass, Large plant response rating (crabgrass, large; [3]) | Plant response rating, Barnyardgrass (barnyardgrass; [5])
20: Plant response rating, Barnyardgrass (barnyardgrass; [2])
50: Plant response rating, Crabgrass, Large (crabgrass, large; [2]) | Plant response rating, Foxtail, Giant (giant foxtail; [4])
80: Plant response rating, Crabgrass, Large (crabgrass, large; [4])

O=C1NCC(c2ccc(F)c(F)c2)C1C(=O)Nc1cccc(C(F)(F)F)c1 (racemic) [Compound 13]
80: Plant response rating, Crabgrass, Large (crabgrass, large; [4])
30: Plant response rating, Barnyardgrass (barnyardgrass; [2]) | Plant response rating, Foxtail, Giant (giant foxtail; [4])
0: Plant response rating, Crabgrass, Large (crabgrass, large; [1]) | Plant response rating, Barnyardgrass (barnyardgrass; [1]) | Barnyardgrass plant response rating (barnyardgrass; [3]) | Plant response rating, Pigweed (pigweed; [1]) | Plant response rating, Pigweed (pigweed; [2]) | Pigweed plant response rating (pigweed; [6]) | Plant response rating, Pigweed (pigweed; [4]) | Plant response rating, Foxtail, Giant (giant foxtail; [1]) | Plant response rating, Foxtail, Giant (giant foxtail; [2]) | Foxtail, Giant plant response rating (giant foxtail; [3]) | Plant response rating, Corn (corn; [1]) | Plant response rating, Corn (corn; [2]) | Corn plant response rating (corn; [3]) | Plant response rating, Corn (corn; [4]) | Plant response rating, Wheat (wheat; [1]) | Plant response rating, Wheat (wheat; [2]) | Wheat plant response rating (wheat; [3]) | Plant response rating, Wheat (wheat; [4]) | Plant response rating, Morningglory (morningglory; [1]) | Plant response rating, Morningglory (morningglory; [2]) | Morningglory plant response rating (morningglory; [3]) | Plant response rating, Morningglory (morningglory; [4]) | Plant response rating, Velvetleaf (velvetleaf; [1]) | Plant response rating, Velvetleaf (velvetleaf; [2]) | Velvetleaf plant response rating (velvetleaf; [3]) | Plant response rating, Velvetleaf (velvetleaf; [4])
50: Crabgrass, Large plant response rating (crabgrass, large; [3]) | Plant response rating, Barnyardgrass (barnyardgrass; [5])
60: Plant response rating, Crabgrass, Large (crabgrass, large; [2])

CC1NC(=O)C(C(=O)Nc2ccccc2C(F)(F)F)C1c1ccc(F)c(F)c1 (mixture of isomers) [Compound 9]
30: Plant response rating, Barnyardgrass (barnyardgrass; [1])
60: Plant response rating, Barnyardgrass (barnyardgrass; [5])
70: Plant response rating, Crabgrass, Large (crabgrass, large; [2]) | Plant response rating, Foxtail, Giant (giant foxtail; [2]) | Foxtail, Giant plant response rating (giant foxtail; [3])
90: Plant response rating, Crabgrass, Large (crabgrass, large; [4]) | Plant response rating, Foxtail, Giant (giant foxtail; [4])
80: Crabgrass, Large plant response rating (crabgrass, large; [3])
40: Plant response rating, Crabgrass, Large (crabgrass, large; [1])
50: Plant response rating, Barnyardgrass (barnyardgrass; [2])
20: Barnyardgrass plant response rating (barnyardgrass; [3])
0: Plant response rating, Pigweed (pigweed; [1]) | Plant response rating, Pigweed (pigweed; [2]) | Pigweed plant response rating (pigweed; [6]) | Plant response rating, Pigweed (pigweed; [4]) | Plant response rating, Foxtail, Giant (giant foxtail; [1]) | Plant response rating, Corn (corn; [1]) | Plant response rating, Corn (corn; [2]) | Corn plant response rating (corn; [3]) | Plant response rating, Corn (corn; [4]) | Plant response rating, Wheat (wheat; [1]) | Plant response rating, Wheat (wheat; [2]) | Wheat plant response rating (wheat; [3]) | Plant response rating, Wheat (wheat; [4]) | Plant response rating, Morningglory (morningglory; [1]) | Plant response rating, Morningglory (morningglory; [2]) | Morningglory plant response rating (morningglory; [3]) | Plant response rating, Morningglory (morningglory; [4]) | Plant response rating, Velvetleaf (velvetleaf; [1]) | Plant response rating, Velvetleaf (velvetleaf; [2]) | Velvetleaf plant response rating (velvetleaf; [3]) | Plant response rating, Velvetleaf (velvetleaf; [4])

C=CCN(C(=O)C1C(=O)NCC1c1ccc(F)c(F)c1)c1ccccc1[N+](=O)[O-] (stereo not drawn) [Compound 266]
0: Plant response rating, Crabgrass, Large (crabgrass, large; [7]) | Plant response rating, Crabgrass, Large (crabgrass, large; [8]) | Plant response rating, Barnyardgrass (barnyardgrass; [7]) | Plant response rating, Barnyardgrass (barnyardgrass; [9]) | Plant response rating, Pigweed (pigweed; [7]) | Plant response rating, Pigweed (pigweed; [8]) | Plant response rating, Foxtail, Giant (giant foxtail; [7]) | Plant response rating, Foxtail, Giant (giant foxtail; [8]) | Plant response rating, Corn (corn; [7]) | Plant response rating, Corn (corn; [8]) | Plant response rating, Wheat (wheat; [7]) | Plant response rating, Wheat (wheat; [8]) | Plant response rating, Morningglory (morningglory; [7]) | Plant response rating, Morningglory (morningglory; [8]) | Plant response rating, Velvetleaf (velvetleaf; [7]) | Plant response rating, Velvetleaf (velvetleaf; [8])
40: Plant response rating, Pigweed (pigweed; [10]) | Plant response rating, Wheat (wheat; [10])
20: Plant response rating, Morningglory (morningglory; [10])

O=C1NCC(c2ccc(Cl)cc2Cl)C1C(=O)Nc1ccccc1F (racemic) [Compound 91]
0: Plant response rating, Barnyardgrass (barnyardgrass; [1]) | Barnyardgrass plant response rating (barnyardgrass; [3]) | Plant response rating, Pigweed (pigweed; [1]) | Plant response rating, Pigweed (pigweed; [2]) | Pigweed plant response rating (pigweed; [6]) | Plant response rating, Pigweed (pigweed; [4]) | Plant response rating, Foxtail, Giant (giant foxtail; [1]) | Foxtail, Giant plant response rating (giant foxtail; [3]) | Plant response rating, Corn (corn; [1]) | Plant response rating, Corn (corn; [2]) | Corn plant response rating (corn; [3]) | Plant response rating, Corn (corn; [4]) | Plant response rating, Wheat (wheat; [1]) | Plant response rating, Wheat (wheat; [2]) | Wheat plant response rating (wheat; [3]) | Plant response rating, Wheat (wheat; [4]) | Plant response rating, Morningglory (morningglory; [1]) | Plant response rating, Morningglory (morningglory; [2]) | Morningglory plant response rating (morningglory; [3]) | Plant response rating, Morningglory (morningglory; [4]) | Plant response rating, Velvetleaf (velvetleaf; [1]) | Plant response rating, Velvetleaf (velvetleaf; [2]) | Velvetleaf plant response rating (velvetleaf; [3]) | Plant response rating, Velvetleaf (velvetleaf; [4])
50: Plant response rating, Crabgrass, Large (crabgrass, large; [2])
30: Plant response rating, Crabgrass, Large (crabgrass, large; [1])
20: Plant response rating, Barnyardgrass (barnyardgrass; [2]) | Plant response rating, Barnyardgrass (barnyardgrass; [5]) | Plant response rating, Foxtail, Giant (giant foxtail; [2])
60: Plant response rating, Crabgrass, Large (crabgrass, large; [4])
40: Crabgrass, Large plant response rating (crabgrass, large; [3]) | Plant response rating, Foxtail, Giant (giant foxtail; [4])

O=C1NCC(c2ccc(F)c(F)c2)C1C(=O)Nc1ccncc1F (stereo not drawn) [Compound 22]
0: Plant response rating, Crabgrass, Large (crabgrass, large; [7]) | Plant response rating, Barnyardgrass (barnyardgrass; [7]) | Plant response rating, Barnyardgrass (barnyardgrass; [11]) | Plant response rating, Pigweed (pigweed; [7]) | Plant response rating, Foxtail, Giant (giant foxtail; [7]) | Plant response rating, Corn (corn; [7]) | Plant response rating, Corn (corn; [11]) | Plant response rating, Wheat (wheat; [7]) | Plant response rating, Wheat (wheat; [11]) | Plant response rating, Morningglory (morningglory; [7]) | Plant response rating, Morningglory (morningglory; [11]) | Plant response rating, Velvetleaf (velvetleaf; [7]) | Plant response rating, Velvetleaf (velvetleaf; [11])
30: Plant response rating, Foxtail, Giant (giant foxtail; [11])
70: Plant response rating, Crabgrass, Large (crabgrass, large; [11])

Cn1ccnc1C1CNC(=O)C1C(=O)Nc1cccc(F)c1F (racemic) [Compound 252]
40: Plant response rating, Crabgrass, Large (crabgrass, large; [8])
20: Plant response rating, Barnyardgrass (barnyardgrass; [9]) | Plant response rating, Foxtail, Giant (giant foxtail; [8])
0: Plant response rating, Crabgrass, Large (crabgrass, large; [7]) | Plant response rating, Barnyardgrass (barnyardgrass; [7]) | Plant response rating, Pigweed (pigweed; [7]) | Plant response rating, Foxtail, Giant (giant foxtail; [7]) | Plant response rating, Corn (corn; [7]) | Plant response rating, Corn (corn; [8]) | Plant response rating, Wheat (wheat; [7]) | Plant response rating, Wheat (wheat; [8]) | Plant response rating, Morningglory (morningglory; [7]) | Plant response rating, Morningglory (morningglory; [8]) | Plant response rating, Velvetleaf (velvetleaf; [7]) | Plant response rating, Velvetleaf (velvetleaf; [8])
